Source: ChEMBL document CHEMBL3507680, “University of Dundee, Gates Library screen for HepG2 cell viability”

Assay: Human HepG2 cell viability assay in 384 well format
Type: toxicity, cell-based
Design: dose 125 nL, time 70.5 hour; concentration not given beside the values
Details: HepG2 cells, read-out: Inhibition

Structure (SMILES) | cytotoxicity at 70.5 h
O=C(N[C@@H]1CN(Cc2ccc3cc[nH]c3c2)C[C@H]1O)c1cnccn1 | -5.2%
N#Cc1ccc(N2CCC3(CC2)CC(Oc2cccnc2)CO3)cc1 (stereo not drawn) | 9.42%
CCc1noc(C)c1C(=O)N1C[C@H](NS(C)(=O)=O)[C@@H](C2CC2)C1 | -3.78%
CN(C)C(=O)N1CCC2(CC(=O)N(c3ccc4c(c3)OCO4)C2)C1 (stereo not drawn) | 1.41%
CN(C)C(=O)c1cn[nH]c1C1CCCN1Cc1c[nH]cn1 (stereo not drawn) | 0.232%
CSCCN1CCC(NC(=O)c2cccc(C3CCCNC3)c2)CC1 (stereo not drawn) | -24.6%
CCOC(=O)NCCC(=O)NCc1ccnc(Oc2ccc(F)cc2)c1 | -1.77%
Fc1cnc(N2CCC3(CC2)CC(OCc2cccnc2)CO3)nc1 (stereo not drawn) | -0.216%
COc1ccccc1C1(CNCc2ccc(C#N)cc2)CCOCC1 | -6.31%
O=C(CN1CCC2(CCCCC2)C1)NCC(F)(F)F | -9.38%
COCC(=O)N1CCCC(c2noc3nc(C)cc(C(F)(F)F)c23)C1 (stereo not drawn) | 12.8%
CCc1nc2ccccc2c(=O)n1CC1(O)CCN(S(C)(=O)=O)CC1 | -20.2%
Cc1oncc1C(=O)N[C@@H]1CN(CC2CC2)C[C@@H]2CCCO[C@@H]21 | -10.1%
Cc1cnc(CN(C)C2CCN(Cc3nc4ccccc4n3C)C2)o1 (stereo not drawn) | 25.2%
CC1CCN(S(=O)(=O)N2CCCN(CC3CCCO3)CC2)CC1 (stereo not drawn) | 13.3%
O=C(C1CCCOC1)N1CCCc2ccccc21 (stereo not drawn) | -4.78%
Cc1ccc(C(=O)N2C[C@@H]3COC[C@]3(COCc3cccnc3)C2)cn1 | -6.21%
O=C(CCc1ccccn1)NC1CCCN(C2Cc3ccccc3C2)C1 (stereo not drawn) | -8.7%
CC(C)n1nc(CN2CCCC2=O)c2c1CN(C(=O)c1ccno1)C2 | -1.71%
Cc1nc(COC[C@@H]2CC[C@H]3[C@H](CCN3C(=O)C3CC3)O2)cs1 | -7.97%
CCCC(=O)NCCc1nc2cc(-c3ccc(OC)cc3)ncn2n1 | -8.47%
Cc1ncccc1OC1(C(=O)NCCc2ccccn2)CCNCC1 | 13.7%
O=C(Cn1cccn1)N1CCC(Oc2cnccn2)CC1 | -6.46%

Structure (SMILES) | cytotoxicity at 70.5 h
O=C1[C@H]2CN(Cc3ccoc3)C[C@H]2CN1Cc1cccnc1 | -11.8%
CC(=O)N1CCC(CCc2ccnc(NC(=O)c3ccccn3)c2)CC1 | 12%
Cc1nc(CN2CCCC(c3cc(C(F)(F)F)[nH]n3)C2)cs1 (stereo not drawn) | -3.08%
Cc1nn(C)c(N(C)C)c1CNCc1cccc(Cn2cccn2)c1 | 9.51%
CC(C)n1ncc2cc(NC(=O)N3CCC(CO)CC3)cnc21 | 3.41%
CC(Nc1cnn(C)c(=O)c1Cl)c1ccc(F)cc1 (stereo not drawn) | -13.1%
Cc1ccc(N2CCN(C(=O)COc3ccccc3)CC2)nn1 | -1.33%
Cc1[nH]c(=O)[nH]c(=O)c1CN1CCCC(CCc2ccc(F)c(F)c2)C1 (stereo not drawn) | -10.6%
CC(CO)(NC(=O)Nc1nnc(C2CC2)s1)C1CCCCC1 (stereo not drawn) | -11.1%
Cc1nc2cc(C3CCOCC3)nn2c(NCC2COCCO2)c1C (stereo not drawn) | 20.9%
Cc1cc(C)n(C2CN(C(=O)c3cn4ccsc4n3)C2)n1 | 2.53%
O=C(Nc1ccccc1)N1C[C@H]2C[C@H](C(=O)N3CCOCC3)[C@@H](C1)O2 | -6.84%
CCc1c(C(=O)O)nnn1-c1ccc(C)cc1C | -17.4%
COc1ccc(CNC[C@H]2COCc3nc4cc(F)ccc4n32)cc1 | -14.9%
Cc1ccc(CNC(=O)Nc2nncs2)cn1 | -6.07%
COc1cccc(C(C)N2CCN(S(=O)(=O)CCCF)CC2)c1 (stereo not drawn) | 34.9%
CCNc1ccnc(N2Cc3cnc(CC(C)C)nc3C2)n1 | 18.4%
Cc1cccc(C2(C(=O)NCC3CCN(CC(F)(F)F)C3)CCC2)c1 (stereo not drawn) | -1.39%
Brc1ccc(NCc2ccc(Cn3ccnc3)cc2)nc1 | 43.7%
COc1c(C2CCCN2Cc2noc(C(C)C)n2)c(C)nn1C (stereo not drawn) | 28.5%
O=C1CC(c2cccs2)c2snc(C(=O)O)c2N1 (stereo not drawn) | -9.35%
CC(C)=CCN1Cc2nnc(C3CCOCC3)n2C(Cc2c[nH]cn2)C1 (stereo not drawn) | -5.43%
CCN1CC(C(=O)NCc2ccnc(-n3cccn3)c2)CC1=O (stereo not drawn) | -4.01%

Structure (SMILES) | cytotoxicity at 70.5 h
Cc1ncc2c(n1)CN(CC1CCCCO1)CC2 (stereo not drawn) | 5.6%
COc1ccc(NC(=O)N2CCCCCC2c2ccncc2)cn1 (stereo not drawn) | -6.87%
CC(C)N1CCN(C(=O)Nc2cnc3c(cnn3C(C)C)c2)CC1 | 1.68%
COCc1csc(NC(=O)NCc2ccsc2)n1 | -4.84%
Cn1c(CN2CCC(N3CCNC3=O)CC2)cc(=O)n(C)c1=O | -7.49%
COc1ccccc1NCC(=O)NCc1scnc1C | 13.6%
Cc1nc(-c2cccc(N3CCC(N4CCCC4)CC3)c2)cs1 | 13.8%
CN(C)C(=O)COCc1nnc2n1CCN(Cc1ccsc1)C2 | 0.94%
COc1ccc(Cl)cc1C(C(=O)O)N1CCSCC1 (stereo not drawn) | -3.65%
CC(=O)N1CCC(NC(C)c2cnn(-c3ccc(F)cc3F)c2C)CC1 (stereo not drawn) | -5.65%
CCC1c2ccsc2CCN1Cc1cc2c(cc1OC)OCCO2 (stereo not drawn) | 1.24%
CCC(CC)CN1CCC(n2cc(C3CCCC3)nn2)CC1 | -3.87%
COCCN1CCC2(CCN(C(=O)c3ccc(F)cc3)CC2)C1=O | 18.4%
Cc1ccn(-c2ccc(N3CCN(Cc4ccccn4)CC3)nn2)n1 | -7.77%
CN(C)C(=O)NCc1ncn2c1CN(Cc1ccco1)CCC2 | -6.46%
O=C(NCCN1CCCC(CO)C1)c1ccc2sccc2c1 (stereo not drawn) | -6.22%
CCC(CC)C(=O)NS(=O)(=O)c1ccc(C#N)cc1C(F)(F)F | -0.398%
Cc1c(C(=O)N2CCCC(n3nnc4cc(F)ccc43)C2)cnn1C (stereo not drawn) | -14.1%
COc1nc2c(cc1C(=O)N1CC[C@H](CO)[C@@H](O)C1)CCC2 | -16.1%
O=C(NCc1ccco1)[C@@]12CCO[C@@H]1CCN(CCN1CCCC1)C2 | 8.62%
CC(C)CN1CCC(NC(C)c2ccccc2-n2cccn2)CC1 (stereo not drawn) | -3.22%
O=C(c1cn(CC(=O)N2CCCCC2)c2ccccc12)C1CC1 | 24%
C[C@@H]1CN(Cc2ccncc2)C[C@]1(C)O | -18%

Structure (SMILES) | cytotoxicity at 70.5 h
CNc1nc(C2CCCN2C(C)=O)nc2c1CCN(CC1CC1)C2 (stereo not drawn) | -13.7%
CCN(C)C1COC2(CCN(C(=O)c3cccc(Cl)c3)CC2)C1 (stereo not drawn) | -6.18%
Cc1ccc(-c2noc([C@@H]3Cc4nc[nH]c4CN3)n2)cc1 | -11.9%
CS(=O)(=O)Nc1ccn(Cc2ccc(F)cc2Cl)n1 | -12.3%
O=C(NCCNS(=O)(=O)c1ccc(C(F)(F)F)cc1)c1ccoc1 | -6.84%
COCCN1CCC(CN(CC2CCCO2)C(=O)Cn2cccn2)CC1 (stereo not drawn) | -4.66%
CN(CCNC(=O)NCc1ccncc1)C1CCCC1 | -18%
Cc1noc([C@H]2C[C@H]3CN(C(=O)C4CCOCC4)CC[C@@H]3O2)n1 | -12.9%
COC1CCN(C(=O)Cc2csc(-c3ncccn3)n2)CC1 | -3.38%
O=C(NC1CCC1)[C@H]1C[C@H]2NCCO[C@@H]2C1 | 4.07%
c1ccc(-c2nc3c(c(NCc4n[nH]c5c4CCC5)n2)CCNC3)cc1 | 12.6%
Cn1nc(C#N)c2c1CN(C(=O)c1nc[nH]n1)CCC2 | -1.6%
Cc1cnn(CC2CCCN2c2ncnc3ccccc23)c1 (stereo not drawn) | 9.14%
Cc1ccc(S(=O)(=O)NCCc2nnc[nH]2)c2cccnc12 | 15.2%
O=C(CCc1nnc2ccccn2c1=O)NCc1ccco1 | 24.6%
Cc1ccc2cc(CN(C)Cc3ccncn3)c(=O)[nH]c2c1 | -13.2%
Cc1ccc(CC(NC(=O)Cn2cnnn2)c2ccccn2)cc1 (stereo not drawn) | -1.31%
Cc1cc(C)n(CCC(=O)N2CCCC(n3nc(C)nc3C)C2)n1 (stereo not drawn) | -6.97%
Cn1cc(C(=O)Nc2ccc3c(c2)N(C(=O)c2ccco2)CC3)nn1 | 0.738%
CC(C)c1ccc(CN[C@@H]2COC[C@H]2c2ccc(F)cc2)cc1 | -5.3%
CCC(C#N)NC(=O)COC1CCCCC1 (stereo not drawn) | -13.3%
CNC(=O)C1(c2cnccn2)CCCN1C(=O)c1cccnc1OC (stereo not drawn) | -9.36%
CN1C(=O)C2(CCN(CCO)C2)c2ccccc21 (stereo not drawn) | -5.56%

Structure (SMILES) | cytotoxicity at 70.5 h
Cc1ccc(NCCCNC(=O)C2CC3(CCNCC3)CN2C)nc1 (stereo not drawn) | -10.5%
Cc1cccc(CN2CCCC2c2cccc(CCC(=O)O)n2)c1 (stereo not drawn) | 15.7%
CC(NC(=O)C1CC1)c1cc(O)nc(-c2cccnc2)n1 (stereo not drawn) | 26.9%
NC(=O)CC1CCN(C(=O)CCOc2ccc(Cl)cc2)CC1 | -1.2%
Cn1cc(NC(=O)C2CC(c3ccccc3)C2)ccc1=O (stereo not drawn) | -15.7%
CSCc1noc(C2CCC(=O)N(CCCN3CCCC3=O)C2)n1 (stereo not drawn) | -4.64%
COc1cccc(NC(=O)NCC(O)c2ccc(F)cc2F)c1 (stereo not drawn) | -6.35%
Cc1ccc(N2CC[C@@H]3[C@@H]2CCN3Cc2ccsc2)nn1 | -0.146%
Fc1cccc2ncnc(NCCCc3ccncc3)c12 | -4.44%
O=S1(=O)c2ccccc2C2(CCN(Cc3cccnc3)C2)N1CC1CC1 (stereo not drawn) | -11.1%
O=C1CC[C@H]2CN(Cc3ccc(Cl)s3)CC[C@H]2N1CCc1c[nH]cn1 | -7.7%
c1cc(C[C@H]2[C@H](N3CCOCC3)CCN2Cc2ccoc2)ccn1 | -11.4%
CCn1ncnc1C1CC(=O)NCc2nc3ccccn3c21 (stereo not drawn) | -3.8%
Cc1ccc(-c2nc(C(=O)N3CCCC(C(N)=O)C3)cs2)c(C)c1 (stereo not drawn) | -8.34%
CCN(CC)c1ncc(S(=O)(=O)c2cccc(C)c2)c(N)n1 | 25.6%
CNC(=O)C1CCCN(C(=O)NCCC2Cc3ccccc3C2)C1 (stereo not drawn) | -1.76%
COCC1CC2(CCN(C(=O)c3ccc(C)nc3)CC2)CO1 (stereo not drawn) | -5.4%
CC(C)N(Cc1cnn(C)c1)C(=O)c1ccnc(N(C)C)c1 | -7.21%
C[C@H](NC(=O)Cc1csc(-c2cccc(Cl)c2)n1)C(=O)O | 19.3%
O=C(CCc1nc(Cl)n[nH]1)N1CCC2(CCCN(CC3CCC3)C2=O)C1 (stereo not drawn) | -7.56%
O=C(c1ccoc1)N1CCN(Cc2ccccc2F)CC1 | -3.32%
